# Laboratory results: patent US11628179B2, “Compounds for treating and preventing extracellular histone mediated pathologies” (priority 2017, dated 2023)
# Values joined by “and” are separate entries in the source; they are usually repeats but may differ in a detail not shown here. Equal values may be shown once. Where a name gives a salt, the structure may show the parent alone.
# Experiments:
# [1] = mCBS vs CBS levels in phosphate buffered pH 7.5 clinical trial formulation stored at 2-8° C. (CAD); format: physicochemical; details: 2-8° C.
# [2] = HPLC analysis of mCBS in buffer formulations after 28 days; format: physicochemical; details: phosphate or citrate buffer, 25±2° C./60% RH and 40±2° C./75% RH
# Sprague Dawley rats = tested on: Sprague Dawley rats
# Experimental: This study examined acute toxicity from single IV administration of mCBS in rats with doses up to 1000 mg/kg.
# The acute toxicity of β-O-methyl cellobioside sulfate (mCBS) was assessed in Sprague Dawley rats following intravenous administration of a single bolus dose. A total of five groups of n=3 adult female rats were treated with 10, 30, 100, 300 and 1000 mg/kg doses of mCBS test item in the form of the sodium salt (mCBS.Na) in this dose range finding study. […] The rats were then observed for 7 days prior to termination without necropsy.
# [3] = Non-specific binding to ultrafiltration device (phosphate buffer); format: in vitro ADME; details: for Concentration of mCBS, 200 ng/mL Post-filter / Concentration of mCBS, 200 ng/mL Pre-filter / Concentration of mCBS, 2000 ng/mL Post-filter / Concentration of mCBS, 2000 ng/mL Pre-filter: Phosphate Buffer pH 7.4, replicates and Mean
# Experimental: Protein binding was assessed by an ultrafiltration method using Centrifree® Ultrafiltration Devices with a 30000 dalton molecular weight cut-off point. Briefly, known concentrations of mCBS (as free base) were added to human, rat and dog plasma samples and incubated for 20 min at 37° C. The samples were then subject to ultrafiltration to separate protein bound and unbound drug.
# mCBS stock solutions (10 μL) were spiked into solutions of each test matrix (490 μL) as listed below in Table 9 to have a final concentration of 200 ng/mL & 2000 ng/m L.
# Spiked samples were then incubated at 37° C. for 20 minutes in a water bath. Aliquots of the samples from each test group (500 μL) were transferred to the ultrafiltration devices (n=3) and centrifuged for 20 minutes at 1000 g. After centrifugation, aliquots of the ultrafiltrates (50 μL) were transferred to separate test tubes for extraction, alongside duplicate aliquots of the samples prior to ultrafiltration from each test group.
# For quantification of samples before ultrafiltration, samples were analysed against a freshly prepared standard curve in plasma.
# Beagle dogs = assay: Phase 2, continuous intravenous infusion at the MTD for 6 additional days; format: in vivo, dog
# Experimental: Following confirmation of the MTD (2788 mg/kg/day), the dogs were then transferred to Phase 2 of the study, and the dosing administration was resumed at the MTD for 6 additional days of continuous infusion as indicated in Table 16 below.
# Following completion of the additional 6 days of continuous infusion and collection of the last toxicokinetic blood samples, all animals were euthanized and subjected to a necropsy examination on Day 8. Histological examination was performed on the liver and kidneys of all animals.
# [4] = tested on: Human platelets in whole blood; assay: Histone-induced platelet degranulation (ATP release); format: cell-based; details: compounds added prior to histones 400 μg/mL
# [5] = tested on: human microvascular endothelial cells (HMECs)
# [6] = mCBS 100 μg/mL added prior to histones 400 μg/mL, 60 min
compound,measurement,setting,value
"CO[C@@H]1O[C@H](COS(=O)(=O)O)[C@@H](O[C@@H]2O[C@H](COS(=O)(=O)O)[C@@H](OS(=O)(=O)O)[C@H](OS(=O)(=O)O)[C@H]2OS(=O)(=O)O)[C@H](OS(=O)(=O)O)[C@H]1OS(=O)(=O)O [mCBS, β-O-methyl cellobioside sulfate]",level in phosphate buffered pH 7.5 formulation,[1]; T0 (months),98.33 CAD %
same,level in phosphate buffered pH 7.5 formulation,[1]; T2,98.39 CAD %
same,level in phosphate buffered pH 7.5 formulation,[1]; T3,98.37 CAD %
same,level in phosphate buffered pH 7.5 formulation,[1]; T7,98.54 CAD %
same,level in phosphate buffered pH 7.5 formulation,[1]; T10,98.47 CAD %
same,level in phosphate buffered pH 7.5 formulation,[1]; T13,98.44 CAD %
same,level in phosphate buffered pH 7.5 formulation,[1]; T19,98.78 CAD %
same,stability when stored in aqueous buffered solution,[1]; over 18 months,high stability
same,variation from nominal after 28 days,[2],~2 % of nominal
same,"MTD estimate from potency assessment, free base","Sprague Dawley rats; IV bolus single and 7-day studies, corrected for potency",~600 mg/kg
same,"Maximum Tolerated Dose (MTD), as free base","Sprague Dawley rats; single IV bolus, corrected for purity and sodium content",815 mg/kg
same,Non-specific binding (NSB %),[3]; 200 ng/mL,0.50%
same,Non-specific binding (NSB %),[3]; 2000 ng/mL,−1.97%
same,"Concentration of mCBS, 200 ng/mL Post-filter",[3],194 ng/mL and 202 ng/mL
same,"Concentration of mCBS, 200 ng/mL Pre-filter",[3],209 ng/mL and 195 ng/mL
same,"Concentration of mCBS, 2000 ng/mL Post-filter",[3],2190 ng/mL and 2160 ng/mL
same,"Concentration of mCBS, 2000 ng/mL Pre-filter",[3],1970 ng/mL
same,"Concentration of mCBS, 200 ng/mL Post-filter",[3]; mean,201 ng/mL
same,"Concentration of mCBS, 200 ng/mL Pre-filter",[3]; mean,202 ng/mL
same,"Concentration of mCBS, 2000 ng/mL Post-filter",[3]; mean,2070 ng/mL
same,"Concentration of mCBS, 2000 ng/mL Pre-filter",[3]; mean,2030 ng/mL
same,tolerability,Beagle dogs; 2788 mg/kg/day continuous IV infusion,well tolerated
same,t1/2 after end of infusion,"Beagle dogs; 2788 mg/kg/day, both animals",approximately 1 hour
same,histone-induced platelet degranulation (ATP release),[4],significantly reduced
same,effect of increasing concentration on viable/dead cells,"[5]; histones 400 μg/mL, increasing concentrations of mCBS",an increase in viable cells (Calcein-AM uptake) and a reduction in dead cells (PI uptake)
same,HMECs reverted from PI uptake to PI exclusion and calcein-AM uptake,"[5]; histones 400 μg/ml 60 min, then mCBS 100 μg/ml for 10 min",approximately 30%
same,protection from histone-mediated injury,[5]; mCBS 25 μg/mL + histones 400 μg/mL,reduced level of protection
same,dead cells (PI uptake),[5]; [6],20%
same,viable cells (calcein-AM),[5]; [6],74%
